How the values were obtained:
pigweed [1] = assay: Test A preemergence; type: in vivo, Amaranthus retroflexus
Outline: (§1)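 Visual 0–100 rating (100 = complete control) taken about 10 d post-treatment relative to untreated checks. Preemergence: directed soil spray on sown loam/sand pots. Postemergence: seedlings 2–10 cm, 1–2 leaf. Non-phytotoxic solvent formulation with surfactant.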

large (Lg) crabgrass [2] = assay: Test A postemergence; type: in vivo, Digitaria sanguinalis
Outline: as §1

large (Lg) crabgrass [3] = assay: Test A preemergence; type: in vivo, Digitaria sanguinalis
Outline: as §1

velvetleaf [4] = assay: Test A preemergence; type: in vivo, Abutilon theophrasti
Outline: as §1

corn [5] = assay: Test A preemergence; type: in vivo, Zea mays
Outline: as §1

wheat [6] = assay: Test A postemergence; type: in vivo, Triticum aestivum
Outline: as §1

wheat [7] = assay: Test A preemergence; type: in vivo, Triticum aestivum
Outline: as §1

velvetleaf [8] = assay: Test A postemergence; type: in vivo, Abutilon theophrasti
Outline: as §1

morningglory [9] = assay: Test A preemergence; type: in vivo, Ipomoea spp.
Outline: as §1

giant foxtail [10] = assay: Test A preemergence; type: in vivo, Setaria faberii
Outline: as §1

barnyardgrass [11] = assay: Test A postemergence; type: in vivo, Echinochloa crus-galli
Outline: as §1

barnyardgrass [12] = assay: Test B flooded paddy test; type: in vivo, Echinochloa crus-galli; details: Flood, 250 g ai/ha; 0 to 100 scale where 0 is no effect and 100 is complete control
Outline: (§2)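 Visual ratings on a 0 to 100 scale, where 100 means complete control, compared treated plants with controls after 13 to 15 days in a greenhouse. Treatment went into paddy water 3 cm deep over the soil, applied to plants at the 2-leaf stage.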

barnyardgrass [13] = assay: Test A preemergence; type: in vivo, Echinochloa crus-galli
Outline: as §1

pigweed [14] = assay: Test A postemergence; type: in vivo, Amaranthus retroflexus
Outline: as §1

morningglory [15] = assay: Test A postemergence; type: in vivo, Ipomoea spp.
Outline: as §1

sedge, umbrella = assay: Test B flooded paddy test; type: in vivo, Cyperus difformis; details: Flood, 250 g ai/ha; 0 to 100 scale where 0 is no effect and 100 is complete control
Outline: as §2

corn [16] = assay: Test A postemergence; type: in vivo, Zea mays
Outline: as §1

giant foxtail [17] = assay: Test A postemergence; type: in vivo, Setaria faberii
Outline: as §1

Heteranthera limosa = assay: Test B flooded paddy test; type: in vivo; details: Flood, 250 g ai/ha; 0 to 100 scale where 0 is no effect and 100 is complete control
Outline: as §2

rice = assay: Test B flooded paddy test; type: in vivo, Oryza sativa; details: Flood, 250 g ai/ha; 0 to 100 scale where 0 is no effect and 100 is complete control
Outline: as §2

[18] = 125 g ai/ha, 0 to 100 scale where 0 is no effect and 100 is complete control
[19] = 500 g ai/ha, 0 to 100 scale, 0 no effect, 100 complete control, approx. 10 days
[20] = 500 g ai/ha, 0 to 100 scale, 0 no effect, 100 complete control
[21] = 500 g ai/ha, 0 to 100 scale where 0 is no effect and 100 is complete control
[22] = 1000 g ai/ha, 0 to 100 scale, 0 no effect, 100 complete control, approx. 10 days
[23] = 1000 g ai/ha, 0 to 100 scale, 0 no effect, 100 complete control

FC(F)(F)c1cnc(Oc2ccccc2-n2ccc(C(F)(F)F)n2)nc1 [Compound 4]
20: Plant response rating, Pigweed (pigweed [14]; [20])
0: Pigweed plant response rating (pigweed [1]; [18]) | Pigweed plant response rating (pigweed [1]; [19]) | Plant response rating, Crabgrass, Large (large (Lg) crabgrass [2]; [18]) | Plant response rating, Crabgrass, Large (large (Lg) crabgrass [2]; [20]) | Crabgrass, Large plant response rating (large (Lg) crabgrass [3]; [18]) | Crabgrass, Large plant response rating (large (Lg) crabgrass [3]; [19]) | Velvetleaf plant response rating (velvetleaf [4]; [18]) | Velvetleaf plant response rating (velvetleaf [4]; [19]) | Corn plant response rating (corn [5]; [18]) | Corn plant response rating (corn [5]; [19]) | Plant response rating, Wheat (wheat [6]; [18]) | Plant response rating, Wheat (wheat [6]; [20]) | Wheat plant response rating (wheat [7]; [18]) | Wheat plant response rating (wheat [7]; [19]) | Plant response rating, Velvetleaf (velvetleaf [8]; [18]) | Plant response rating, Velvetleaf (velvetleaf [8]; [20]) | Morningglory plant response rating (morningglory [9]; [18]) | Morningglory plant response rating (morningglory [9]; [19]) | Foxtail, Giant plant response rating (giant foxtail [10]; [18]) | Foxtail, Giant plant response rating (giant foxtail [10]; [19]) | Plant response rating, Barnyardgrass (barnyardgrass [11]; [18]) | Plant response rating, Barnyardgrass (barnyardgrass [11]; [20]) | Plant response rating, Barnyardgrass (barnyardgrass [12]) | Barnyardgrass plant response rating (barnyardgrass [13]; [18]) | Barnyardgrass plant response rating (barnyardgrass [13]; [19]) | Plant response rating, Pigweed (pigweed [14]; [18]) | Plant response rating, Morningglory (morningglory [15]; [18]) | Plant response rating, Morningglory (morningglory [15]; [20]) | Plant response rating, Sedge, Umbrella (sedge, umbrella) | Plant response rating, Corn (corn [16]; [18]) | Plant response rating, Corn (corn [16]; [20]) | Plant response rating, Foxtail, Giant (giant foxtail [17]; [18]) | Plant response rating, Foxtail, Giant (giant foxtail [17]; [20]) | Plant response rating, Ducksalad (Heteranthera limosa) | Plant response rating, Rice (rice)

Cc1cccc(Oc2ncc(Cl)cn2)c1-n1cc(Br)cn1 [Compound 44]
100: Plant response rating, Pigweed (pigweed [1]; [18]) | Pigweed plant response rating (pigweed [1]; [19]) | Plant response rating, Crabgrass, Large (large (Lg) crabgrass [2]; [20]) | Crabgrass, Large plant response rating (large (Lg) crabgrass [3]; [19]) | Velvetleaf plant response rating (velvetleaf [4]; [19]) | Plant response rating, Velvetleaf (velvetleaf [8]; [18]) | Plant response rating, Velvetleaf (velvetleaf [8]; [20]) | Foxtail, Giant plant response rating (giant foxtail [10]; [19]) | Barnyardgrass plant response rating (barnyardgrass [13]; [19]) | Plant response rating, Pigweed (pigweed [14]; [20]) | Plant response rating, Ducksalad (Heteranthera limosa)
50: Plant response rating, Morningglory (morningglory [9]; [18]) | Plant response rating, Barnyardgrass (barnyardgrass [13]; [18]) | Plant response rating, Foxtail, Giant (giant foxtail [17]; [18])
70: Plant response rating, Velvetleaf (velvetleaf [4]; [18]) | Plant response rating, Pigweed (pigweed [14]; [18])
20: Corn plant response rating (corn [5]; [19]) | Wheat plant response rating (wheat [7]; [19]) | Plant response rating, Barnyardgrass (barnyardgrass [12]) | Plant response rating, Morningglory (morningglory [15]; [18]) | Plant response rating, Corn (corn [16]; [18])
40: Plant response rating, Corn (corn [16]; [20])
90: Plant response rating, Crabgrass, Large (large (Lg) crabgrass [3]; [18]) | Plant response rating, Barnyardgrass (barnyardgrass [11]; [20]) | Plant response rating, Sedge, Umbrella (sedge, umbrella) | Plant response rating, Foxtail, Giant (giant foxtail [17]; [20])
80: Plant response rating, Crabgrass, Large (large (Lg) crabgrass [2]; [18])
30: Plant response rating, Wheat (wheat [6]; [20]) | Plant response rating, Barnyardgrass (barnyardgrass [11]; [18])
45: Plant response rating, Rice (rice)
0: Plant response rating, Corn (corn [5]; [18]) | Plant response rating, Wheat (wheat [6]; [18]) | Plant response rating, Wheat (wheat [7]; [18])
60: Morningglory plant response rating (morningglory [9]; [19]) | Plant response rating, Foxtail, Giant (giant foxtail [10]; [18]) | Plant response rating, Morningglory (morningglory [15]; [20])

N#Cc1cccc(Oc2ncc(C(F)(F)F)cn2)c1-n1cc(Br)cn1 [Compound 113]
10: Plant response rating, Velvetleaf (velvetleaf [4]; [18]) | Plant response rating, Corn (corn [16]; [18]) | Plant response rating, Foxtail, Giant (giant foxtail [17]; [18])
90: Foxtail, Giant plant response rating (giant foxtail [10]; [19]) | Barnyardgrass plant response rating (barnyardgrass [13]; [19])
0: Plant response rating, Corn (corn [5]; [18]) | Plant response rating, Wheat (wheat [7]; [18]) | Plant response rating, Morningglory (morningglory [9]; [18]) | Plant response rating, Barnyardgrass (barnyardgrass [11]; [18]) | Plant response rating, Barnyardgrass (barnyardgrass [12]) | Plant response rating, Barnyardgrass (barnyardgrass [13]; [18]) | Plant response rating, Sedge, Umbrella (sedge, umbrella) | Plant response rating, Ducksalad (Heteranthera limosa) | Plant response rating, Rice (rice)
60: Plant response rating, Wheat (wheat [6]; [21]) | Plant response rating, Corn (corn [16]; [21]) | Plant response rating, Foxtail, Giant (giant foxtail [17]; [21])
100: Plant response rating, Pigweed (pigweed [1]; [18]) | Pigweed plant response rating (pigweed [1]; [19]) | Crabgrass, Large plant response rating (large (Lg) crabgrass [3]; [19])
20: Plant response rating, Crabgrass, Large (large (Lg) crabgrass [2]; [18]) | Corn plant response rating (corn [5]; [19]) | Plant response rating, Foxtail, Giant (giant foxtail [10]; [18])
30: Morningglory plant response rating (morningglory [9]; [19]) | Plant response rating, Morningglory (morningglory [15]; [21])
70: Plant response rating, Crabgrass, Large (large (Lg) crabgrass [2]; [21])
80: Plant response rating, Crabgrass, Large (large (Lg) crabgrass [3]; [18]) | Plant response rating, Velvetleaf (velvetleaf [8]; [21]) | Plant response rating, Barnyardgrass (barnyardgrass [11]; [21]) | Plant response rating, Pigweed (pigweed [14]; [21])

FC(F)(F)COc1cccc(Oc2ncc(Cl)cn2)c1-n1cc(Br)cn1 [Compound 69]
10: Morningglory plant response rating (morningglory [9]; [22])
70: Plant response rating, Barnyardgrass (barnyardgrass [13]; [23]) | Plant response rating, Foxtail, Giant (giant foxtail [17]; [23])
50: Plant response rating, Barnyardgrass (barnyardgrass [11]; [23])
60: Plant response rating, Velvetleaf (velvetleaf [8]; [23])
90: Plant response rating, Crabgrass, Large (large (Lg) crabgrass [3]; [23]) | Foxtail, Giant plant response rating (giant foxtail [10]; [22])
80: Plant response rating, Crabgrass, Large (large (Lg) crabgrass [2]; [23]) | Velvetleaf plant response rating (velvetleaf [4]; [22])
30: Plant response rating, Wheat (wheat [6]; [23]) | Plant response rating, Morningglory (morningglory [15]; [23])
0: Plant response rating, Corn (corn [5]; [23]) | Plant response rating, Barnyardgrass (barnyardgrass [12]) | Plant response rating, Sedge, Umbrella (sedge, umbrella) | Plant response rating, Ducksalad (Heteranthera limosa) | Plant response rating, Rice (rice)
20: Wheat plant response rating (wheat [7]; [22]) | Plant response rating, Corn (corn [16]; [23])
100: Pigweed plant response rating (pigweed [1]; [22]) | Plant response rating, Pigweed (pigweed [14]; [23])

Reference: patent US9695155B2, “Herbicidal substituted pyrimidinyloxy benzene compounds” (E. I. DU PONT DE NEMOURS AND COMPANY, priority 2013, dated 2017)
